Experiments:
[1] = biological target: A. gallica protoilludene synthase (Armillaria gallica, UniProt P0DL13); format: biochemical
[2] = biological target: T1, Pro1 (A. gallica protoilludene synthase) expressed in Escherichia coli (Armillaria gallica, UniProt P0DL13); experiment: Sesquiterpene synthase activity of crude soluble protein extract of E. coli expressing Pro1 (radio-TLC); format: biochemical; conditions: same Pro1 lysate incubated with diterpene synthase substrate
T1 construct: A. gallica protoilludene synthase (clone Pro1); made in house; host or cells: E. coli BL21 (DE3) CodonPlus, vector pDEST14; crude soluble lysate
Experimental: Escherichia coli protein extracts were prepared by resolving the cell pellet from cultivation in the described extraction puffer and cells were lysed under constant cooling by two rounds of Microfluidizer treatment.
Part of the organic extract was then spotted onto silica-gel TLC plates and separated using 9:1 cyclohexane:ethyl acetate as the solvent, prior to analysis in a radio-TLC reader (Raytest, Straubenhardt). For the determination of KM values the reactions were stopped by quenching with 100 mM EDTA (final concentration) followed by extraction with n-pentane, purification by silica gel column chromatography and quantitation by liquid scintillation counting. All kinetic activity assays were performed in triplicate. Mass spectrometry analysis of solvent extracts was performed on a QP2010S quadrupole mass spectrometer (Shimadzu) equipped with an Rxi™-5 ms (0.25 mm ID, 30 m length) column (Restek) using the following temperature program: 80° C. for 20 min, followed by heating the column at an rate of 15° C./min to 300° C. with a final constant temperature of 300° C. for 4 min. Fragmentation was achieved by electric ionization at […].
Where cDNA sequencing identified potential terpene synthase clones, the corresponding pENTRY vectors were used in LR recombination reactions involving the pDEST14 destination vector. […]

[Cl][Mn][Cl] [MnCl2]
fall of protoilludene synthase activity ([1]; 5 mM MgCl2 replaced with MnCl2, relative to highest activity with MgCl2): 75%

CCO [ethanol]
effect on enzyme activity [1]: dramatic reduction in activity

CC(C)=CCC/C(C)=C/CC/C(C)=C/CC/C(C)=C/COP(=O)(O)OP(=O)(O)O [gernaylgeranyl diphosphate, geranylgeranyl diphosphate]
substrate converted into less polar product [2]: < 1%

From patent US9005939B2, “Protoilludene synthase” (priority 2010, dated 2015)
